Experimental data reported in patent US20090093551A1, “REMOTELY TRIGGERED RELEASE FROM HEATABLE SURFACES” (priority 2006, published 2009).

Assays:
[1] = In vitro EM field-triggered release of fluorescent DNA from nanoparticles embedded in hydrogel (matrigel) plugs; details: hydrogel plug; for release on higher power EM field: higher power 3 kW
[2] = mouse, in vivo
Description: Phenol red free, growth factor reduced matrigel (400 μl, BD Biosciences) was added to 100 μl of particles. To obtain 1.05% total concentration of particles, 75 μl of DNA-conjugated particles (approximately 3.3 mg/ml) were added to 25 μl of similar 50 nm particles (200 mg/ml, Chemicell). Gels (total volume 500 μl) were mixed at 4° C. to prevent gelation.
Prior to injection of matrigel plugs into mice, approval from the Burnham Institute Animal Use Committee was obtained (AUF 05-054). In these experiments, 500 μl volumes were injected subcutaneous near the posterior mammary fat pad of six athymic nude mice and allowed to gel for 45 minutes. Prior to injection, animals were anesthetized with Avertin® (tribromoethanol) and remained under anesthesia during the remainder of the experiment. Three animals were treated with EM fields for two 5 minute doses, with 15 minutes between field applications (+EMF), while three were not treated (−EMF). […] To quantify penetration depth, 8 images of the tissue/phantom boundary were taken for each animal (3 animals per group, 24 images total). […] Using Metamorph software (Universal Imaging), green fluorescence on the tissue side of the boundary was quantified. For each fluorescent “object,” the area and distance from the tissue boundary was measured. An area-weighted average distance was calculated. […]

Substance	release on higher power EM field [1]	release on low power EM field pulses ([1]; low power EM field pulses 0.55 kW)	release of fluorescein into surrounding buffer on repeated EM field pulses ([1]; EM field pulses 400 kHz, 1.25 kW, 5 minutes every 40 minutes)	increase of the average distance of fluorescence signal, EM field treated over unexposed controls [2]
5′-CGCTGATTCAAGCCGACTAACCGC-3′ (DNA CGCTGATTCAAGCCGACTAACCGC; DNA, backbone and methylation of C not given here; fluorescent dye at 5' end, dye not named) [24 bp, HEX, 5′ HEX-labeled 24 bp complement DNA hybridized to 30 bp parent DNA on magnetite nanoparticles]	simultaneous release of both species			
5′-TCG CTG ATT CAA-3′ (DNA TCGCTGATTCAA; DNA, backbone and methylation of C not given here; fluorescent dye at 5' end, dye not named) [12 bp, FAM, 5′ FAM-labeled 12 bp complement DNA hybridized to 30 bp parent DNA on magnetite nanoparticles]	simultaneous release of both species	triggered release predominantly of FAM		
5′-TGA TTC AAG CCG ACT AAC-3′ (DNA TGATTCAAGCCGACTAAC; 5' fluorescein label, further chemistry not given here)			corresponding release of fluorescein	approximately six-fold
